# Calls of active or inactive are those of the source. No cut-off for these calls is given here.
# What was measured:
# [1] = Cytotoxicity against mock-infected human MT4 cells after 5 days by MTT assay; type: cell-based
# [2] = tested on: Human immunodeficiency virus 2; assay: Antiviral activity against HIV2 ROD in MT4 cells assessed as inhibition of virus-induced cytopathogenicity by MTT assay; type: functional, organism-based; details: Human immunodeficiency virus 2, ROD
# [3] = tested on: Human immunodeficiency virus 1; assay: Antiviral activity against HIV1 3B in MT4 cells assessed as inhibition of virus-induced cytopathogenicity by MTT assay; type: functional, organism-based; details: Human immunodeficiency virus 1, 3B
# [4] = Selectivity index, ratio of CC50 for human MT4 cells to EC50 for HIV1 3B; type: toxicity, cell-based; details: read-out: Ratio CC50/EC50
# [5] = Selectivity index, ratio of CC50 for human MT4 cells to EC50 for HIV2 ROD; type: toxicity, cell-based; details: read-out: Ratio CC50/EC50
# [6] = tested on: Human immunodeficiency virus 1; assay: Antiviral activity against HIV1 3B in PBMC assessed as inhibition of p24 production after 7 days by ELISA; type: functional, organism-based; details: Human immunodeficiency virus 1, 3B, 168 h
# [7] = tested on: Human immunodeficiency virus 1; assay: Antiviral activity against HIV1 3B in MT4 cells assessed as virus p24 antigen production administered at 10 hrs post infection by ELISA; type: functional, organism-based
# [8] = Cytotoxicity against mock-infected human PBMC cells by trypan blue exclusion assay; type: cell-based
# [9] = tested on: Human immunodeficiency virus 1; assay: Antiviral activity against HIV1 3B in CEM cells assessed as inhibition of virus-induced syncytium formation after 4 days by microscopy; type: functional, organism-based; details: Human immunodeficiency virus 1, 3B, CCRF-CEM, 96 h
# [10] = target: T1, Protein Tat (Human immunodeficiency virus type 1 group M subtype B (isolate HXB2)(HIV-1)) (UniProt P04608); assay: Inhibition of HIV1 Tat-mediated LTR promoter transactivation in Tat/GFP plasmid expressed in Jurkat cells assessed as GFP gene expression by FACS analysis; type: cell-based; details: Human immunodeficiency virus 1
# T1 sequence (whole entry): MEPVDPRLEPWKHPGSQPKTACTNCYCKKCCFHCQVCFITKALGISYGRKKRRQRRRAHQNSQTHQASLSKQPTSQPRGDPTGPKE
# [11] = tested on: Human immunodeficiency virus 2; assay: Antiviral activity against HIV2 ROD in CEM cells assessed as inhibition of virus-induced syncytium formation after 4 days by microscopy; type: functional, organism-based; details: Human immunodeficiency virus 2, ROD, CCRF-CEM, 96 h
# [12] = Cytotoxicity against mock-infected human CEM cells by Coulter counter; type: cell-based; details: mock-infected CEM (CCRF-CEM) cells
# [13] = Selectivity index, ratio of CC50 for human CEM cells to EC50 for HIV2 ROD; type: toxicity, cell-based, CCRF-CEM; details: read-out: Ratio CC50/EC50
# [14] = Selectivity index, ratio of CC50 for human PBMC cells to EC50 for HIV1 3B; type: toxicity, cell-based; details: read-out: Ratio CC50/EC50
# [15] = tested on: Human immunodeficiency virus 1; assay: Inhibition of HIV1 3B production in chronically infected HUT78 cells assessed as virus p24 antigen production after 44 hrs by ELISA; type: functional, organism-based
# [16] = Selectivity index, ratio of CC50 for human CEM cells to EC50 for HIV1 3B; type: toxicity, cell-based, CCRF-CEM; details: read-out: Ratio CC50/EC50
compound,measurement,setting,value
CCN(CCNc1cc2c(cc1N)c(=O)c(C(=O)O)cn2C)c1ccccn1,CC50 at 120 h,[1],16.9 µg/mL
same,EC50,[2],> 16.9 µg/mL
same,EC50,[3],> 16.9 µg/mL
Cn1cc(C(=O)NCc2ccc(F)cc2F)c(=O)c2cc(N)c(N3CCN(c4ccccn4)CC3)cc21,CC50 at 120 h,[1],32.2 µg/mL
same,EC50,[2],> 32.2 µg/mL
same,selectivity ratio,[4],< 1
same,selectivity ratio,[5],< 1
same,EC50,[3],> 32.2 µg/mL
Nc1cc2c(=O)c(C(=O)O)c[nH]c2cc1N1CCN(c2cccc(C(F)(F)F)c2)CC1,CC50 at 120 h,[1],1.64 µg/mL
same,EC50,[2],0.46 µg/mL
same,selectivity ratio,[4],4
same,selectivity ratio,[5],4
same,EC50,[3],0.38 µg/mL
Cn1cc(C(=O)O)c(=O)c2ccc(N3CCN(c4nc5ccccc5s4)CC3)cc21,EC50,[6],0.15 µg/mL
same,CC50 at 120 h,[1],0.44 µg/mL
same,Activity,[7],Active
same,EC50,[2],0.04 µg/mL
same,CC50,[8],0.65 µg/mL
same,selectivity ratio,[4],14.7
same,EC50,[9],0.024 µg/mL
same,Activity,[10],Dose-dependent effect
same,EC50,[11],0.065 µg/mL
same,CC50,[12],6.74 µg/mL
same,selectivity ratio,[5],5.5
same,selectivity ratio,[13],104
same,selectivity ratio,[14],4
same,Activity,[15],Active
same,EC50,[3],0.03 µg/mL
same,selectivity ratio,[16],281
Cn1cc(C(=O)O)c(=O)c2ccc(N3CCN(c4ccccn4)CC3)cc21,EC50,[6],1.35 µg/mL
same,CC50 at 120 h,[1],65.5 µg/mL
same,EC50,[2],> 65.5 µg/mL
same,CC50,[8],> 100 µg/mL
same,selectivity ratio,[4],3.4
same,EC50,[9],1.2 µg/mL
same,EC50,[11],1.8 µg/mL
same,CC50,[12],> 100 µg/mL
same,selectivity ratio,[5],< 1
same,selectivity ratio,[13],> 56
same,selectivity ratio,[14],> 74
same,EC50,[3],19.2 µg/mL
same,selectivity ratio,[16],> 83
Cn1cc(C(=O)NCc2ccc(Cl)cc2)c(=O)c2cc(N)c(N3CCN(c4ccccn4)CC3)cc21,CC50 at 120 h,[1],> 125 µg/mL
same,EC50,[2],> 125 µg/mL
same,selectivity ratio,[5],1
same,EC50,[3],> 125 µg/mL
Cn1cc(C(=O)O)c(=O)c2cc(N)c(N3CCC(c4ccccn4)C3)cc21 (stereo unspecified),CC50 at 120 h,[1],> 90.8 µg/mL
same,EC50,[2],> 90.8 µg/mL
same,selectivity ratio,[4],< 1
same,selectivity ratio,[5],< 1
same,EC50,[3],> 90.8 µg/mL
Nc1cc2c(=O)c(C(=O)O)c[nH]c2cc1N1CCN(c2ccccn2)CC1,EC50,[6],0.094 µg/mL
same,CC50 at 120 h,[1],2.16 µg/mL
same,EC50,[2],0.16 µg/mL
same,CC50,[8],1.28 µg/mL
same,selectivity ratio,[4],5
same,EC50,[9],0.051 µg/mL
same,EC50,[11],0.09 µg/mL
same,CC50,[12],4.75 µg/mL
same,selectivity ratio,[5],14
same,selectivity ratio,[13],53
same,selectivity ratio,[14],13
same,EC50,[3],0.45 µg/mL
same,selectivity ratio,[16],93
Cn1cc(C(=O)O)c(=O)c2ccc(N3CCN(c4nccs4)CC3)cc21,CC50 at 120 h,[1],> 125 µg/mL
same,EC50,[2],12.7 µg/mL
same,selectivity ratio,[4],> 12
same,EC50,[9],2.6 µg/mL
same,EC50,[11],8 µg/mL
same,CC50,[12],≥ 100 µg/mL
same,selectivity ratio,[5],> 10
same,selectivity ratio,[13],≥ 12
same,EC50,[3],10 µg/mL
same,selectivity ratio,[16],≥ 38
Cn1cc(C(=O)O)c(=O)c2cc(N)c(N3CCN(c4cnc5ccccc5n4)CC3)cc21,CC50 at 120 h,[1],3.2 µg/mL
same,EC50,[2],0.19 µg/mL
same,selectivity ratio,[4],18
same,EC50,[9],0.05 µg/mL
same,EC50,[11],0.28 µg/mL
same,CC50,[12],> 4 µg/mL
same,selectivity ratio,[5],17
same,selectivity ratio,[13],> 14
same,EC50,[3],0.18 µg/mL
same,selectivity ratio,[16],> 80
Nc1cc2c(=O)c(C(=O)O)c[nH]c2cc1N1CCN(c2nccs2)CC1,EC50,[6],0.21 µg/mL
same,CC50 at 120 h,[1],7.61 µg/mL
same,EC50,[2],1.92 µg/mL
same,CC50,[8],2.02 µg/mL
same,selectivity ratio,[4],7
same,EC50,[9],0.7 µg/mL
same,EC50,[11],0.6 µg/mL
same,CC50,[12],15.8 µg/mL
same,selectivity ratio,[5],5
same,selectivity ratio,[13],26
same,selectivity ratio,[14],10
same,EC50,[3],1.21 µg/mL
same,selectivity ratio,[16],23
Cn1ccc(=O)c2cc(N)c(N3CCN(c4ccccn4)CC3)cc21,CC50 at 120 h,[1],105 µg/mL
same,EC50,[2],> 104 µg/mL
same,selectivity ratio,[4],< 1
same,selectivity ratio,[5],< 1
same,EC50,[3],> 105 µg/mL
Cn1cc(C(=O)O)c(=O)c2cc(N)c(N3CCN(Cc4ccccn4)CC3)cc21,CC50 at 120 h,[1],> 125 µg/mL
same,EC50,[2],> 125 µg/mL
same,EC50,[3],> 125 µg/mL
Cn1cc(C(N)=O)c(=O)c2cc(N)c(N3CCN(c4ccccn4)CC3)cc21,CC50 at 120 h,[1],> 125 µg/mL
same,EC50,[2],> 125 µg/mL
same,EC50,[3],> 125 µg/mL
Nc1cc2c(=O)c(C(=O)O)c[nH]c2cc1N1CCN(c2nc3ccccc3o2)CC1,EC50,[6],0.16 µg/mL
same,CC50 at 120 h,[1],1.95 µg/mL
same,EC50,[2],0.28 µg/mL
same,CC50,[8],1.12 µg/mL
same,selectivity ratio,[4],11
same,EC50,[9],0.3 µg/mL
same,EC50,[11],0.23 µg/mL
same,CC50,[12],3.17 µg/mL
same,selectivity ratio,[5],7
same,selectivity ratio,[13],14
same,selectivity ratio,[14],7
same,EC50,[3],0.23 µg/mL
same,selectivity ratio,[16],11
